# Source: publication PMC4858680, “A platinum-based hybrid drug design approach to circumvent acquired resistance to molecular targeted tyrosine kinase inhibitors” (Scientific Reports, 2016)
# Where two headings read alike, the source gives them in different places.
# What was measured:
# Assay type in all cases: binding
# INSRR = target: T1, INSRR (Homo sapiens, UniProt P14616); settings: for remaining binding at 10 µM: read-out: Percent control
# T1 construct: purchased DiscoveRx KINOMEscan
# MERTK = target: T2, MERTK (Homo sapiens, UniProt Q12866); settings: for remaining binding at 10 µM: read-out: Percent control
# T2 construct: purchased DiscoveRx KINOMEscan
# T2 sequence (Q12866 21-999): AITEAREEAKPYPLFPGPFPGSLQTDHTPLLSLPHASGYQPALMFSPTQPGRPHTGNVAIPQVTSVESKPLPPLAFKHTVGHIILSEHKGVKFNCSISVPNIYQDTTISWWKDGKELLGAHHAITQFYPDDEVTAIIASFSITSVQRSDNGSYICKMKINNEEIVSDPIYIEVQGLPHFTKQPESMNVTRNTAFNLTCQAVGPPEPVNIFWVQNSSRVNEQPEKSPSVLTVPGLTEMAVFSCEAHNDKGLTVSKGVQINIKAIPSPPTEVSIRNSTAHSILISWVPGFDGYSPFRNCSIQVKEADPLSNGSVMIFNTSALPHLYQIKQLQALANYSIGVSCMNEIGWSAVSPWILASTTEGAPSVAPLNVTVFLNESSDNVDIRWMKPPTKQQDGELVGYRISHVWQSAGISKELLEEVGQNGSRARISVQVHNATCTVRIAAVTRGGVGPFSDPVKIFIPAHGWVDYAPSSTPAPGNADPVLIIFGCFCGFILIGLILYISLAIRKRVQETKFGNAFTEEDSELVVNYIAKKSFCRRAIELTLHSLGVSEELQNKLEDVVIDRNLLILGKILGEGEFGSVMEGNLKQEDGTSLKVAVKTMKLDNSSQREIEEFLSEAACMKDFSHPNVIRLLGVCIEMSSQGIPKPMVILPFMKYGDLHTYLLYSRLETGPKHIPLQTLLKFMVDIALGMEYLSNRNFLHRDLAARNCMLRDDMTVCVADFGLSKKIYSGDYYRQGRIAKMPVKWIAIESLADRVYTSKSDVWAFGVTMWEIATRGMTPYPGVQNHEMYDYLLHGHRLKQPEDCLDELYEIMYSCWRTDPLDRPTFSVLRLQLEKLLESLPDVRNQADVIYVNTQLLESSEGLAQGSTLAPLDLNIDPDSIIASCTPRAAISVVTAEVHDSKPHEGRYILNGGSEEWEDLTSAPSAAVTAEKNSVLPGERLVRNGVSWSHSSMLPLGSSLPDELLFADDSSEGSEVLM
# FGR = target: T3, FGR (Homo sapiens, UniProt P09769); settings: for remaining binding at 10 µM: read-out: Percent control; for Percent control: 10 μM
# T3 construct: purchased DiscoveRx KINOMEscan
# T3 sequence (P09769 whole entry): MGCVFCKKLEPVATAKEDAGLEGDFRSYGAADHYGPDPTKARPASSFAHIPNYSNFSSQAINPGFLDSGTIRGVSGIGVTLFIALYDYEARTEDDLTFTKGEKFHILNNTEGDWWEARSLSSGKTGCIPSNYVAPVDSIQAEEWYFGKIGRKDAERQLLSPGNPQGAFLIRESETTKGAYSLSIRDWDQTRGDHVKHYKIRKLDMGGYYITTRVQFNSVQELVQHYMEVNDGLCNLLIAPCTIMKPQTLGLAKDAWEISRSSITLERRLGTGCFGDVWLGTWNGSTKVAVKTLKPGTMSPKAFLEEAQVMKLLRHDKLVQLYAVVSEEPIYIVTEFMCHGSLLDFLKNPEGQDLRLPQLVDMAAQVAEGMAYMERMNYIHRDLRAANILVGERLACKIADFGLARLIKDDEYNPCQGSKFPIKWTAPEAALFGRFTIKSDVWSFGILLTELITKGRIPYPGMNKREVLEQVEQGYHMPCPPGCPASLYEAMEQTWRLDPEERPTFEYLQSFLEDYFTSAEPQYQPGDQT
# EPHA3 = target: T4, EPHA3 (Homo sapiens, UniProt P29320); settings: for remaining binding at 10 µM: read-out: Percent control
# T4 construct: purchased DiscoveRx KINOMEscan
# T4 sequence (P29320 21-983): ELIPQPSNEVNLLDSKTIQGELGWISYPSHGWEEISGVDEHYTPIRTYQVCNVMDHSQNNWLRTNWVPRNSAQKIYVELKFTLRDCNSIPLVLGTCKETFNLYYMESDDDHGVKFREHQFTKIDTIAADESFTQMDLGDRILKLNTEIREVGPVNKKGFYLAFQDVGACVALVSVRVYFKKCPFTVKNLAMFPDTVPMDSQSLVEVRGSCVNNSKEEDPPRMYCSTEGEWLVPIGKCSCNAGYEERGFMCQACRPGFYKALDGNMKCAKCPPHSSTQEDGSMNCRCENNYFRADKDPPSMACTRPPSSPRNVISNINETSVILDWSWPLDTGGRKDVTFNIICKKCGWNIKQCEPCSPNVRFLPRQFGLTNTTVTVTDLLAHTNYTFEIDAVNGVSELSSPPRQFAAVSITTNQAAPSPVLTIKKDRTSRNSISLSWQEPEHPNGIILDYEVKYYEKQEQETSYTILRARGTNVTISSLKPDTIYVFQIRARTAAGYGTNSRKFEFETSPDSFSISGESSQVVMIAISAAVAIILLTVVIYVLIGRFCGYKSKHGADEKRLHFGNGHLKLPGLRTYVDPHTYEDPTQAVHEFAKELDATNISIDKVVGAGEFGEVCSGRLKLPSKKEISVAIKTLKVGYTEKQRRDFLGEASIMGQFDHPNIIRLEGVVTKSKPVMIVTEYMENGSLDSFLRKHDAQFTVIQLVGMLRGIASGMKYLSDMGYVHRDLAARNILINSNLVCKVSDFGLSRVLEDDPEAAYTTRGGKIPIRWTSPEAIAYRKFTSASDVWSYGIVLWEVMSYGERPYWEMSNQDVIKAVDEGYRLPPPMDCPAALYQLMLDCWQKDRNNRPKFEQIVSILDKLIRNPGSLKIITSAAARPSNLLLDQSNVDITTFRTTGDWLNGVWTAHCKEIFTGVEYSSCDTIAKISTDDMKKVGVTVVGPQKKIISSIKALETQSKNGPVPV
# ERBB4 = target: T5, ERBB4 (Homo sapiens, UniProt Q15303); settings: for remaining binding at 10 µM: read-out: Percent control
# T5 construct: purchased DiscoveRx KINOMEscan
# T5 sequence (Q15303 26-1308): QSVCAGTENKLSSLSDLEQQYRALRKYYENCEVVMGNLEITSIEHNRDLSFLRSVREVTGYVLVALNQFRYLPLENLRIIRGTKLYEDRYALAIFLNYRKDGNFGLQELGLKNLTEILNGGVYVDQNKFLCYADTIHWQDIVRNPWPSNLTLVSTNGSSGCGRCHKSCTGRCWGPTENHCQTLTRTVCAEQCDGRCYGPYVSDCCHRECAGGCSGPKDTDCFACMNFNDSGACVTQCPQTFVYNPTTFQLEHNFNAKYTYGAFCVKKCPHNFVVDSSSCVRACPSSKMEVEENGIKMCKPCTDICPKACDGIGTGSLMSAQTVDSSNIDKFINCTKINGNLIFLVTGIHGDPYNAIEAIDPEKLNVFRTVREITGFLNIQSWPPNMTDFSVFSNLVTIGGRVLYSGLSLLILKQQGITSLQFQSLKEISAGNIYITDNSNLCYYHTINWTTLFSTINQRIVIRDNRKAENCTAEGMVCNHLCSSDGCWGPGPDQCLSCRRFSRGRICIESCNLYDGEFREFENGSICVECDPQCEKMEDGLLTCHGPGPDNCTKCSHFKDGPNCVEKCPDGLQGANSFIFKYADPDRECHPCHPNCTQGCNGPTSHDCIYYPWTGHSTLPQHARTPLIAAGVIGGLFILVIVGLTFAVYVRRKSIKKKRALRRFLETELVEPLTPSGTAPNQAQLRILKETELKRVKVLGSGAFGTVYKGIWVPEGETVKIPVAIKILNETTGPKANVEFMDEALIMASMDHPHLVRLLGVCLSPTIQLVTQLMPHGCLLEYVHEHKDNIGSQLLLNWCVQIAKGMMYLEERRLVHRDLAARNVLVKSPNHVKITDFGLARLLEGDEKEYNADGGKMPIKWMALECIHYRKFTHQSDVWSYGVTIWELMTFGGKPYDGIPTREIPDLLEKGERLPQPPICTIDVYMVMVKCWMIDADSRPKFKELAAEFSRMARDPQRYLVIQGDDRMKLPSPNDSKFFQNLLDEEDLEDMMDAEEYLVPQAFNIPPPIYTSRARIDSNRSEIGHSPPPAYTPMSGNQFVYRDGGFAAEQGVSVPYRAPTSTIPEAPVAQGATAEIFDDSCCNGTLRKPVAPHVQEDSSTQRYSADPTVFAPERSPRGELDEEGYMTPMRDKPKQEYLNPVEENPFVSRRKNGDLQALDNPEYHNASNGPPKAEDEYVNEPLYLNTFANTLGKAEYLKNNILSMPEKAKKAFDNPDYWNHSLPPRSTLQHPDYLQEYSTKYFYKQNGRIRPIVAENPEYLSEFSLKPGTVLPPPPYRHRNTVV
# [1] = target: T6, JAK3(JH1domain-catalytic) (Homo sapiens, UniProt P52333); settings: for remaining binding at 10 µM: read-out: Percent control
# T6 construct: JAK3(JH1domain-catalytic); purchased DiscoveRx KINOMEscan
# T6 sequence (P52333 813-1124 limits assumed): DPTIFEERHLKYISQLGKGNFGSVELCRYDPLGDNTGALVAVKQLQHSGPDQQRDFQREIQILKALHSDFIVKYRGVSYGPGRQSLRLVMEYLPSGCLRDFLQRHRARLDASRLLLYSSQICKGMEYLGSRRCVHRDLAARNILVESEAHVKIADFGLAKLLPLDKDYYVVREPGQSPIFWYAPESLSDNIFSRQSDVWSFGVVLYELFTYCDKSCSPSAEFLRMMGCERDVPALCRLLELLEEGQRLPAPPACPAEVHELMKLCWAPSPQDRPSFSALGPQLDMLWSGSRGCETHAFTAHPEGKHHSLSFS
# BMX = target: T7, BMX (Homo sapiens, UniProt P51813); settings: for remaining binding at 10 µM: read-out: Percent control
# T7 construct: purchased DiscoveRx KINOMEscan
# T7 sequence (P51813 1-675): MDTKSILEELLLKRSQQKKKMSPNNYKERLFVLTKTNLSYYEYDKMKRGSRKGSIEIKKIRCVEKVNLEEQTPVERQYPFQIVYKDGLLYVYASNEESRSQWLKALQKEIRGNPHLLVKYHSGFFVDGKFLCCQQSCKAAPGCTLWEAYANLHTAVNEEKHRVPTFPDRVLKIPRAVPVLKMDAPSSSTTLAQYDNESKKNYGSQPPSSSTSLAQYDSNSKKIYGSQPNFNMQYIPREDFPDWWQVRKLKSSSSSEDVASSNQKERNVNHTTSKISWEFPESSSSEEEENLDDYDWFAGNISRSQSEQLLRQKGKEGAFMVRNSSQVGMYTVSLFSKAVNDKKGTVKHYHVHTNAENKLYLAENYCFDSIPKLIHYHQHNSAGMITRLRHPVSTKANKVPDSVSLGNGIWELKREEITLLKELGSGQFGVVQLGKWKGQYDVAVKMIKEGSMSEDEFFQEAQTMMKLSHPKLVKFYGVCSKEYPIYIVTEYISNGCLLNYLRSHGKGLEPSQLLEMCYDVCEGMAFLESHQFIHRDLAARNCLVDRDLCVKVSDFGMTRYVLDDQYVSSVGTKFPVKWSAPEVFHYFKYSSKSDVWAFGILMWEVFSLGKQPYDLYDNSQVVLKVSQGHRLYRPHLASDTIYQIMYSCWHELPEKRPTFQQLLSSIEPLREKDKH
# [2] = JAK3(JH1domain-catalytic), 10 μM
# T1 sequence (P14616 27-1297): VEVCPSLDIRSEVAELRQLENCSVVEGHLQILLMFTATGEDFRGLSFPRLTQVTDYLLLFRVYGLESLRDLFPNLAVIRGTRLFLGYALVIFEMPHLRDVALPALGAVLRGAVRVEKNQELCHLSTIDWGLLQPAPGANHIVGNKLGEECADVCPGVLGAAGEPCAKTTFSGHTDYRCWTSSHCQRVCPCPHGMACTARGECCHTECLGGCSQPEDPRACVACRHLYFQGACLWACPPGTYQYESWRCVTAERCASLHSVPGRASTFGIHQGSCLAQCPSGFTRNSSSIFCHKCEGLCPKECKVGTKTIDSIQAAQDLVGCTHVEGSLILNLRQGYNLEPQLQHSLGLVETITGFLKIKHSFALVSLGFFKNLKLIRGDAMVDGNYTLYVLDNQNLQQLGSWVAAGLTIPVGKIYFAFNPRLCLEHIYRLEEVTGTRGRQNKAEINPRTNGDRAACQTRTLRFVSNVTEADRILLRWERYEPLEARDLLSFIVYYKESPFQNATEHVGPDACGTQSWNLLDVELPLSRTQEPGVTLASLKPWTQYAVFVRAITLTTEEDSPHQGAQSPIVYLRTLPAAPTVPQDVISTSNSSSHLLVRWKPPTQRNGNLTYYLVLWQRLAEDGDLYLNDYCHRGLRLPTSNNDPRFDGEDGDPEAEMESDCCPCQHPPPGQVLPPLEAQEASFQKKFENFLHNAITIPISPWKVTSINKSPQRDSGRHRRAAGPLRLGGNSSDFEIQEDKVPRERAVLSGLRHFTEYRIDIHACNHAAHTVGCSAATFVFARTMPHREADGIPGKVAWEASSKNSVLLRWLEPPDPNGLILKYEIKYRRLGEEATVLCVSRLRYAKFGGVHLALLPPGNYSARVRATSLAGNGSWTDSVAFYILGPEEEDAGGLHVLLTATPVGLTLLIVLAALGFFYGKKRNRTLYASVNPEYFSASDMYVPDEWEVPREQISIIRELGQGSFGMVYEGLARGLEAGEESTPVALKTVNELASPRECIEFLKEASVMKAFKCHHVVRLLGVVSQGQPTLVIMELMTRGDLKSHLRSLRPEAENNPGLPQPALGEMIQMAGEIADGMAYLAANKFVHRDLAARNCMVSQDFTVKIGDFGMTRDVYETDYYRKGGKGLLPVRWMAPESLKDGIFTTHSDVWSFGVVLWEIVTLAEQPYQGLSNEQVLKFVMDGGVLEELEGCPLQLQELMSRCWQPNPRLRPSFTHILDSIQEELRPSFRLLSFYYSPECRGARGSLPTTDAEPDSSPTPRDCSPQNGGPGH
structure (smiles),measurement,setting,value
C#Cc1cccc(Nc2ncnc3cc(OCCOC)c(OCCOC)cc23)c1 [Erlotinib],remaining binding at 10 µM,INSRR,100%
same,remaining binding at 10 µM,MERTK,8.9%
same,remaining binding at 10 µM,FGR,9.9%
same,remaining binding at 10 µM,EPHA3,19.4%
same,remaining binding at 10 µM,ERBB4,2.2%
same,remaining binding at 10 µM,[1],6.5%
same,remaining binding at 10 µM,BMX,100%
"Cc1ccc(NC(=O)c2ccc(CN3CCN(C)CC3)cc2)cc1Nc1nccc(-c2cccnc2)[n+]1[Pt-2]1([Cl])[NH2+]C2CCCCC2[NH2+]1 (stereo not drawn) [1b, oxaliplatin-imatinib]",Percent control,"INSRR; INSRR, 10 μM",100%
same,Percent control,"MERTK; MERTK, 10 μM",100%
same,Percent control,FGR,80%
same,Percent control,"EPHA3; EPHA3, 10 μM",64%
same,Percent control,"ERBB4; ERBB4, 10 μM",93%
same,Percent control,[1]; [2],55%
same,Percent control,"BMX; BMX, 10 μM",98%
"COc1cc2c(Nc3ccc(Br)cc3F)ncnc2cc1OCC1CCN(C)CC1 [Vandetanib, reference compound]",remaining binding at 10 µM,"INSRR; INSRR, 10 μM",100%
same,remaining binding at 10 µM,"MERTK; MERTK, 10 μM",12.3%
same,remaining binding at 10 µM,FGR,2.6%
same,remaining binding at 10 µM,"EPHA3; EPHA3, 10 μM",16.7%
same,remaining binding at 10 µM,"ERBB4; ERBB4, 10 μM",4.5%
same,remaining binding at 10 µM,[1]; [2],100%
same,remaining binding at 10 µM,"BMX; BMX, 10 μM",100%
"COc1cc2c(Nc3ccc(Br)cc3F)[n+]([Pt-2]3([Cl])[NH2+]C4CCCCC4[NH2+]3)cnc2cc1OCC1CCN(C)CC1 (stereo not drawn) [3b, oxaliplatin-vandetanib]",Percent control,"INSRR; INSRR, 10 μM",100%
same,Percent control,"MERTK; MERTK, 10 μM",17%
same,Percent control,FGR,33%
same,Percent control,"EPHA3; EPHA3, 10 μM",30%
same,Percent control,"ERBB4; ERBB4, 10 μM",56%
same,Percent control,[1]; [2],100%
same,Percent control,"BMX; BMX, 10 μM",92%
"C#Cc1cccc(Nc2c3cc(OCCOC)c(OCCOC)cc3nc[n+]2[Pt@SP2-2]([NH3+])([NH3+])[Cl])c1 [2a, cisplatin-erlotinib]",Percent control,"INSRR; INSRR, 10 μM",100%
same,Percent control,"MERTK; MERTK, 10 μM",100%
same,Percent control,FGR,81%
same,Percent control,"EPHA3; EPHA3, 10 μM",60%
same,Percent control,"ERBB4; ERBB4, 10 μM",47%
same,Percent control,[1]; [2],28%
same,Percent control,"BMX; BMX, 10 μM",100%
"Cc1ccc(NC(=O)c2ccc(CN3CCN(C)CC3)cc2)cc1Nc1nccc(-c2cccnc2)n1 [Imatinib, reference compound]",Percent control,"INSRR; INSRR, 10 μM",100%
same,Percent control,"MERTK; MERTK, 10 μM",100%
same,Percent control,FGR,19.4%
same,Percent control,"EPHA3; EPHA3, 10 μM",100%
same,Percent control,"ERBB4; ERBB4, 10 μM",100%
same,Percent control,[1]; [2],100%
same,Percent control,"BMX; BMX, 10 μM",100%
